Where two headings read alike, the source gives them in different places.
Legend:
[1] = test system: Human Cryopreserved Hepatocytes; experiment: Metabolic stability in human cryopreserved hepatocytes; assay type: in vitro ADME
Description: The metabolic stability of the Compounds of Examples 1 and 4 is therefore evaluated to determine whether metabolic degradation results in metabolites of concern.
Briefly, Human Cryopreserved Hepatocytes (Gibco, lot. HUE125) are added to incubation wells in a 96-well assay plate at a density of 500,000 cells/mL in William's E Medium. […] The wells are incubated at 37° C. and stop solution is added to wells at time points: 0, 30, 60, 120, 240 min. The stop solution is ice-cold solution containing 0.5 μM labetalol in acetonitrile (100 μL/well) (2:1, vol/vol). Each time point is tested in triplicate. Analysis is carried out by LC-MS.
• Instrument: QExactive • Column: Luna Omega 1.6 μm polar C18 100 Å (150×2.1 mm) • Column temperature: 40° C. • Column No: 102+pre-column installed • Injection volume: 2 μl • Flux: 0.40 mL/min • Polarity: Negative • Fluent A: water Milli Q+0.1% FA • Fluent B: ACN+0.1% FA • Acquisition method: Full MS+DDS on the IL obtained with MassMetaSite (peak others ON).

[2] = Egg concentration analysis from topically treated chickens; assay type: in vivo; conditions: in vivo
Description: One animal is left untreated as a negative control.
A modified and optimized QuEChERS protocol was employed to extract the compounds from eggs. The shell is manually removed, and then each egg is transferred to a clean beaker and homogenized with an electric mixer for small volumes. 5 grams of homogenized egg is put into a 50 mL Falcon tube, and 5 mL of water is added and the samples are shaken for 10 minutes. Next, 10 mL of acetonitrile is added and the samples are shaken again for 10 minutes. Then the roQ salts (4.0 g MgSO4, 1.0 g NaCl, 1.0 SCTD and 0.5 g SCDS, Phenomenex P/N KS08909) are added to each sample, and the mixture is well shaken for 10 minutes. Samples are then centrifuged at 2500 g for 5 minutes at room temperature, and the supernatant is transferred to an HPLC vial for analysis. The same HPLC-MS method is used as described above.
One egg from two chickens is analyzed: one chicken treated with Fipronil and one chicken treated with the Compound of Example 1. The eggs are both from Day 5. The results are shown in the following tables expressed as relative LC-MS peak area: […]

[3] = test system: adult worker honeybees, Apis mellifera L; experiment: Acute oral toxicity test in honeybees (OECD 213); assay type: in vivo
Description: Untreated 50% w/v sucrose solution with 0.2% of propanol-water solution (ratio 80%-20%) is used as a negative control.
The test item is diluted with aqueous sucrose solution 50% (w/v) to prepare the oral solutions. The bees used for the oral test are anesthetized with carbon dioxide for the time necessary to immobilize them and placed inside the test cages; 2 hours before the treatment they are starved. A volume of 200 μL (20 μL/bee) of treated diet is administered to each cage with a dispenser (e.g., a syringe without tip), weighed before and after filling.
The overall exposure period is 6 hours, during which consumption is monitored: the feeder is changed at the end of the six hours or once the treated diet has been consumed (usually within 3-4 hours). In both cases, the feeder is weighed and a new feeder with untreated 50% (w/v) sucrose solution is provided ad libitum, and the mean effective dose is calculated based on the actual consumption.

Dermanyssus gallinae = experiment: Antiparasitic efficacy on live chickens with natural mite infestation; assay type: in vivo; conditions: by day 5 of treatment; 0.25% (w/v) spray, 7.5 mg/kg once daily for 5 days
Description: Two animals are treated with the compound of Example 1, and two animals are treated with Fipronil, while one animal is left untreated as a negative control. The infestation by D. gallinae is monitored by checking the density of mites in particular areas of the animal's bodies (feet, legs, and wings), comparing pre-treatment levels of infestation to post-treatment levels.
When all pests have been eliminated, a 100% pest control capability was achieved. In the case of some chemical products, when the pest was not fully eliminated, the disinfestation capacity was measured by averaging the number of infesting organisms located in three distinct areas of the treated animals, at the beginning of the treatment, and at the end of the treatment.

[4] = test system: adult worker honeybees, Apis mellifera L; conditions: contact
Source text: In accordance with OECD Test Guidelines No. 213 and 214, the test is considered valid if: (1) the average mortality of the control groups is ≤10% at the end of the test; and the average, control-corrected mortality of the reference item groups is ≥50% at the end of the test, at the tested dose (internal validity criteria according to POS BT200).
Young Apis mellifera L. worker honeybees are randomly collected in the morning of use or the day before from an adequately fed, healthy diseases-free and queen right beehive, not treated with chemical substances. Hives from an established apiary colony are used, and the colonies are inspected periodically, according to standard bee-keeping practices. All colonies are kept outside under field conditions and bees collect food from the environment. The last treatment against Varroa mites was done in November 2023. The bees are fed ad libitum with a water sucrose solution 50% w/v (or 500 g/L), prepared with tap water.
Adult worker honeybees are exposed to three increasing doses of the test item (see Table 2) by direct application to the thorax (droplets, see section 4.5.2). One control group is treated with propanol-water solution (ratio 80%-20%) in addition to test item groups.
Bee mortality is recorded after 4, 24 and 48 hours, and compared with the control value. If the mortality rate increases by more than 10% between 24 and 48 hours, whilst the control mortality rate remains ≤10%, the is extended to a maximum of 96 hours.
The test item is diluted in propanol-water solution (ratio 80%-20%) to prepare the contact solutions.
The bees used for the contact test are anaesthetized with carbon dioxide and individually treated by topical application of 2 μL of the test solutions onto the thorax using a micro applicator. The honeybees are then be moved to the cages and fed ad libitum with sucrose solution.
Disposable and well-ventilated cages with an internal volume not lower than 200 cm^3 are used. Each cage is equipped with a transparent lid, for a suitable observation of the bees from outside. The upper side of the cage has at least one hole for inserting the feeder: a syringe filled of 50% (w/v) aqueous sucrose solution is inserted in one hole.
The tests are conducted under the following conditions: (a) Temperature: 25.00[…]; (b) Relative humidity: 60.00[…], The honeybees are kept under constant darkness except during the assessments. Throughout the experimental phase, the temperature and relative humidity is continuously recorded with a dedicated data-logger with sensors located close to the test units.
The number of dead honeybees per cage is recorded after 4, 24 and 48 hours. If a prolonged observation period is required, further assessments are made every 24 hours, tip to a maximum duration of 96 hours. The amount of diet consumed per group is quantitatively estimated if treated diet will be left after 6 hours of exposure.
Data is summarized in tabular form, showing the number of live, dead and abnormal bees per experimental group. The mortality of each replicate is calculated as a percentage, comparing the number of dead bees to those introduced at the beginning. The mean value of the treated group is compared to the mean mortality of the respective control group(s) using the Abbott's formula modified by Schneider-Orelli (POS BT 200): […]

N#Cc1nn(-c2c(Cl)cc(C(F)(F)F)cc2Cl)c2nc(O)cc(C(F)F)c12 [Example 4, 1-(2,6-dichloro-4-(trifluoromethyl)phenyl)-4-(difluoromethyl)-6-hydroxy-1H-pyrazolo[3,4-b]pyridine-3-carbonitrile]
Original compound still present ([1]; after 240 minutes, 1 μM, 500,000 cells/mL, 37° C.): approximately 84.2% | Metabolic stability (in words) ([1]; human hepatocytes, up to 240 min, 1 μM): highly metabolically stable

N#Cc1nn(-c2c(Cl)cc(C(F)(F)F)cc2Cl)c(N)c1S(=O)(=O)C(F)(F)F [Fipronil Sulfone, Fipronil sulfone]
Relative LC-MS peak area of analyte in egg ([2]; chicken, 5 days): 5.6

NC(=O)c1nn(-c2c(Cl)cc(C(F)(F)F)cc2Cl)c(N)c1[S+]([O-])C(F)(F)F (stereo not drawn) [Fipronil Amide, Fipronil amide]
Relative LC-MS peak area of analyte in egg [2]: 3.8

N#Cc1nn(-c2c(Cl)cc(C(F)(F)F)cc2Cl)c(N)c1[S+]([O-])C(F)(F)F (stereo not drawn) [Fipronil, reference compound]
% CM (4 hours) ([3]; group T1, dose 0.002 μg/bee): 0.0% | % CM (24 hours) ([3]; group T1, dose 0.002 μg/bee): 20.8% | % CM (48 hours) ([3]; group T1, dose 0.002 μg/bee): 23.8% | % CM (4 hours) ([3]; group T2, dose 0.004 μg/bee): 0.0% | % CM (24 hours) ([3]; group T2, dose 0.004 μg/bee): 37.5% | % CM (48 hours) ([3]; group T2, dose 0.004 μg/bee): 33.3% | % CM (4 hours) ([3]; group T3, dose 0.006 μg/bee): 3.3% | % CM (24 hours) ([3]; group T3, dose 0.006 μg/bee): 58.3% | % CM (48 hours) ([3]; group T3, dose 0.006 μg/bee): 66.7% | Relative LC-MS peak area of analyte in egg ([2]; chicken, 5 days): 4.8 | Chickens free of mites (Dermanyssus gallinae): 100% | % CM (4 hours) ([4]; group T1, dose 0.002 μg/bee): 0.0% | % CM (24 hours) ([4]; group T1, dose 0.002 μg/bee): 7.1% | % CM (48 hours) ([4]; group T1, dose 0.002 μg/bee): 7.7% | % CM (4 hours) ([4]; group T2, dose 0.004 μg/bee): 0.0% | % CM (24 hours) ([4]; group T2, dose 0.004 μg/bee): 25.0% | % CM (48 hours) ([4]; group T2, dose 0.004 μg/bee): 30.8% | % CM (4 hours) ([4]; group T3, dose 0.006 μg/bee): 0.0% | % CM (24 hours) ([4]; group T3, dose 0.006 μg/bee): 71.4% | % CM (48 hours) ([4]; group T3, dose 0.006 μg/bee): 76.9%

From patent publication US12419308B2, “Phenylpyrazole insecticide compounds and compositions” (priority 2023, dated 2025)
